Measurements reported in patent US20190184064A1, “Composition for Soft Tissue Augmentation Providing Protection from Infection” (priority 2015, published 2019).

Experiments:
[1] = system: Stapylococcus aureus (SA 113); experiment: Solution exposure of antimicrobial hyaluronic acid hydrogels to living cultures (SA 113); format: cell-based; details: 20 μl early phase culture in 980 μl formulation
Description: (§1) By way of Examples, the following evaluations were done to assess the performance of the antimicrobial hyaluronic acid gels. Solution exposure of the antimicrobial hyaluronic acid hydrogels immersed in early phase concentrations of 2 test microorganisms were conducted. Additionally, the physical properties of the hydrogels were assessed to determine their shear/thixotropic properties.
(§2) In this study, two strains of bacteria, namely Pseudomonas aeruginosa (PAO1) and Stapylococcus aureus (SA 113) were evaluated for total kill of each of the strains after 4 and 24 hours of exposure to the taurolidine-HA formulation. 20 μl of early phase culture of each strain was placed in 980 μl of each Hyaluronic Acid formulation. Samples of remaining bacteria concentrations were determined for the samples after 4 and 24 hours of exposure. Two controls (with and without HA), and HA gels with 3 different drug concentrations were evaluated. They were also evaluated against a known antimicrobial, gentamicin.

[2] = system: Pseudomonas aeruginosa (PAO1); experiment: Solution exposure of antimicrobial hyaluronic acid hydrogels to living cultures (PAO1); format: cell-based; details: 20 μl early phase culture in 980 μl formulation
Description: as §1, §2

Question: How did the “SA113 (4 hr) remaining bacteria concentration” value ([1]; 4 hours of exposure) turn out when gentamicin was run?
Answer: 3.77E+02

Question: And the “SA113 (24 hr) remaining bacteria concentration” value ([1]; 24 hours of exposure)?
Answer: 8.33E+00

Question: What about the “PA01 (4 hr) remaining bacteria concentration” value ([2]; 4 hours of exposure) of the same substance?
Answer: 0.00E+00

Question: And the “PA01 (24 hr) remaining bacteria concentration” value ([2]; 24 hours of exposure)?
Answer: 0.00E+00
